23 compounds from patent US12023319B2, “Carboxylic acid aromatic amides” (priority 2016, dated 2024) can be followed below.

What is called pIC50 is the IC50 on a negative log10 scale, so that one unit is a factor of ten.

pIC50: −log10 of the molar value.

For this experiment, the target named is T1, human Bradykinin B1 receptor (Homo sapiens, UniProt P46663).
T1 construct: host or cells: CHO-K1
T1 sequence (P46663 1-353): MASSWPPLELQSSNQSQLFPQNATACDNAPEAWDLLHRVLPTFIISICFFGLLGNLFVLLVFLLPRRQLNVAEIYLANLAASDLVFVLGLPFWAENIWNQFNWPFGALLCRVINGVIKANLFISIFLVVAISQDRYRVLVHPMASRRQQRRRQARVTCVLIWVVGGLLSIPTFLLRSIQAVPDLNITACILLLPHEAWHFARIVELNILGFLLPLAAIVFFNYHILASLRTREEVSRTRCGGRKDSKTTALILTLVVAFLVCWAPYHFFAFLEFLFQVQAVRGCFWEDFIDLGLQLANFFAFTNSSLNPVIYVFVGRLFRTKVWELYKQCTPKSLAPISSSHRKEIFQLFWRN
Description: Calcium flux assay (FLIPR), CHO-K1 cells expressing human Bradykinin B1 receptor, absence of 0.1% BSA (hB1 free IC50). The format is cell-based. Particulars: absence of 0.1% BSA in assay buffer. The protocol: The potency to inhibit the Bradykinin B1 receptor was determined for the Compound Examples of this invention in a cell-based fluorescent calcium-mobilisation assay. The assay measures the ability of Compound Examples to inhibit Bradykinin B1 receptor agonist-induced increase of intracellular free Ca^2+ in the cell line expressing Bradykinin B1 receptor. Specifically, calcium indicator-loaded cells are pre-incubated in the absence or presence of different concentrations of Compound Examples followed by the stimulation with a selective Bradykinin B1 receptor agonist peptide. The change of the intracellular Ca^2+ concentration is monitored with a fluorescent plate reader FLIPR^TETRA® (Molecular Devices).
Calcium Flux Assays (FLIPR) with Cells Expressing Human Bradykinin B1 Receptor (hB1)
CHO-K1 cell line expressing human Bradykinin B1 receptor is purchased from Euroscreen (Gosselies, Belgium, with reference name hB1-D1). The cells are grown in Nutrient Mixture Ham's F12 (Sigma) containing 10% Foetal bovine serum (Sigma) and 400 μg/mL G418 (Sigma), 5 μg/mL puromycin (Sigma).
The effect of BSA on the potency of endothelin receptor antagonists have been described in the prior art (Wu-Wong, J. R. et al. (1997), JPET 281: 791-798). The teaching can be applied in analogy to testing the potency of Bradykinin B1 receptor antagonist in the FLIPR assays.
For the calcium flux assay, 80% confluent cells are detached from the culture vessels with Versene (Gibco), and seeded into 384-well plates (Cell binding Surface; Corning, NY; #3683) at a density of 15,000 cells per well. Cells are seeded in a volume of 50 μL in medium without antibiotics and incubated overnight in a humidified atmosphere with 5% CO2 at 37° C. […] The calcium indicator loaded cells are incubated at 37° C. for 2 hrs. Extracellular dye is then removed and each well is filled with 45 μL of assay buffer. Cell plates are kept in dark until used. Compound examples are assayed at 8 concentrations in triplicate. Serial 10-fold dilutions in 100% DMSO are made at a 100-times higher concentration than the final concentration, and then diluted 1:10 in assay buffer. 5 μL of each diluted compound is added to the well of cell plates (yielding final concentration with 1% DMSO), and incubated for 30 min at 28° C. before the addition of Bradykinin B1 receptor agonist on the FLIPR instrument.
The addition of agonist 20 μl per well to the assay plate is carried out on the FLIPR instrument while continuously monitoring Ca2+-dependent fluorescence at 538 nm. A peptide antagonist Lys-(Des-Arg-Leu)-Bradykinin (Bachem, Brackley) at 20 µM is used to determine the full inhibition as control.
Peak fluorescence is used to determine the response to agonist obtained at each concentration of Compound Examples by the following equation: % Response=100*(RFU(compound)−RFU(control))/(RFU(DMSO)−RFU(control))
RFU means relative fluorescence units.
Control means full inhibition by the peptide antagonist Lys-(Des-Arg-Leu)-Bradykinin at 20 µM.
The response values are plotted against the logarithm of the compound concentrations. The Compound Examples are tested in triplicates per plate and mean values are plotted in Excel XLfit to determine IC50 values, percentage of maximal inhibition and the Hill slopes.
For orientation: Calcium assays in cells follow changes in intracellular calcium, usually with a dye or a luminescent sensor.
On to `COc1ccc(F)c(C2(C(=O)Nc3ccc(-c4cnn(C5CCC5)c4)c(C(=O)O)c3)CC2)c1` [Example 63, 2-(1-Cyclobutyl-1H-pyrazol-4-yl)-5-({[1-(2-fluoro-5-methoxyphenyl)cyclopropyl]carbonyl}amino)benzoic acid], for which the pIC50 is 5.52.

Turning to `Cc1cnc(-c2ccc(NC(=O)C3(c4ccc(C(F)(F)F)cc4F)CC3)cc2C(=O)O)cn1` [Example 169, 5-[({1-[2-Fluoro-4-(trifluoromethyl)phenyl]cyclopropyl}carbonyl)amino]-2-(5-methylpyrazin-2-yl)benzoic acid], the pIC50 was 5.68.

`O=C(O)c1cc(NC(=O)C2(c3ccc(C(F)(F)F)cc3)CC2)ccc1-c1cnn(C2CCC2)c1` [Example 50, 2-(1-Cyclobutyl-1H-pyrazol-4-yl)-5-[({1-[4-(trifluoromethyl)phenyl]cyclopropyl}carbonyl)amino]benzoic acid]: the pIC50 was 7.21.

With `O=C(O)c1cc(NC(=O)C2(c3ccc(C(F)(F)F)cc3F)CC2)ccc1-c1cnc(C2CCCC2)s1` [Example 167, 2-(2-Cyclopentyl-1,3-thiazol-5-yl)-5-[({1-[2-fluoro-4-(trifluoromethyl)phenyl]cyclopropyl}carbonyl)amino]benzoic acid], the pIC50 is 8.47.

Turning to `O=C(O)c1cc(NC(=O)C2(c3ccc(OC(F)(F)F)cc3F)CC2)ccc1-c1cn(C2CCC2)cn1` [Example 170, 2-(1-Cyclobutyl-1H-imidazol-4-yl)-5-[({1-[2-fluoro-4-(trifluoromethoxy)phenyl]cyclopropyl}carbonyl)amino]benzoic acid], the pIC50 was 5.68.

Turning to `O=C(O)c1cc(NC(=O)C2(c3cc(C(F)(F)F)ccc3F)CC2)ccc1-c1cnn(C2CCC2)c1` [Example 60, 2-(1-Cyclobutyl-1H-pyrazol-4-yl)-5-[({1-[2-fluoro-5-(trifluoromethyl)phenyl]cyclopropyl}carbonyl)amino]benzoic acid], the pIC50 is 7.21.

As to `O=C(O)c1cc(NC(=O)C2(c3ccc(C(F)(F)F)c(F)c3)CC2)ccc1-c1cnn(C2CCC2)c1` [Example 79, 2-(1-Cyclobutyl-1H-pyrazol-4-yl)-5-[({1-[3-fluoro-4-(trifluoromethyl)phenyl]cyclopropyl}carbonyl)amino]benzoic acid], the pIC50 was 7.22.

Take `O=C(O)c1cc(NC(=O)C2(c3ccc(OC(F)(F)F)cc3F)CC2)ccc1-c1cnn(C2CC2)c1` [Example 125, 2-(1-Cyclopropyl-1H-pyrazol-4-yl)-5-[({1-[2-fluoro-4-(trifluoromethoxy)phenyl]cyclopropyl}carbonyl)amino]benzoic acid]: the pIC50 is 6.77.

Turning to `O=C(O)c1cc(NC(=O)C2(c3ccccc3)CC2)cc(F)c1-c1cnn(C2CCC2)c1` [Example 141, 2-(1-Cyclobutyl-1H-pyrazol-4-yl)-3-fluoro-5-{[(1-phenylcyclopropyl)carbonyl]amino}benzoic acid], the pIC50 is 5.55.

Regarding `CC(C)(C)n1cc(-c2ccc(NC(=O)C3(c4ccc(C(F)(F)F)cc4F)CC3)cc2C(=O)O)cn1` [Example 72, 2-(1-tert-Butyl-1H-pyrazol-4-yl)-5-[({1-[2-fluoro-4-(trifluoromethyl)phenyl]cyclopropyl}carbonyl)amino]benzoic acid], the pIC50 was 7.55.

For `O=C(O)c1cc(NC(=O)C2(c3ccc(C(F)(F)F)cc3F)CC2)ccc1-c1ccc(C(F)(F)F)s1` [Example 48, 5-[({1-[2-Fluoro-4-(trifluoromethyl)phenyl]cyclopropyl}carbonyl)amino]-2-[5-(trifluoromethyl)-2-thienyl]benzoic acid], the pIC50 is 6.66.

For `O=C(O)c1cc(NC(=O)C2(c3ccc(C(F)(F)F)cc3F)CC2)cc(Cl)c1-c1ccc(C(F)(F)F)nc1` [Example 104, 3-Chloro-5-[({1-[2-fluoro-4-(trifluoromethyl)phenyl]cyclopropyl}carbonyl)amino]-2-[6-(trifluoromethyl)pyridin-3-yl]benzoic acid], the pIC50 was 6.89.

For the compound `COCCn1cc(-c2ccc(NC(=O)C3(c4ccc(C(F)(F)F)cc4F)CC3)cc2C(=O)O)cn1` [Example 155, 5-[({1-[2-Fluoro-4-(trifluoromethyl)phenyl]cyclopropyl}carbonyl)amino]-2-[1-(2-methoxyethyl)-1H-pyrazol-4-yl]benzoic acid], the pIC50 is 6.57.

For the compound `Cn1cc(-c2c(F)cc(NC(=O)C3(c4ccc(C(F)(F)F)cc4F)CC3)cc2C(=O)O)cn1` [Example 143, 3-Fluoro-5-[({1-[2-fluoro-4-(trifluoromethyl)phenyl]cyclopropyl}carbonyl)amino]-2-(1-methyl-1H-pyrazol-4-yl)benzoic acid], the pIC50 was 7.11.

In the case of `CCC(F)(F)c1ccc(-c2ccc(NC(=O)C3(c4ccc(Cl)cc4F)CC3)cc2C(=O)O)cn1` [Example 24, 5-({[1-(4-Chloro-2-fluorophenyl)cyclopropyl]carbonyl}amino)-2-[6-(1,1-difluoropropyl)pyridin-3-yl]benzoic acid], the pIC50 was 6.54.

On to `CC(C)n1cc(-c2c(F)cc(NC(=O)C3(c4ccc(Cl)cc4F)CC3)cc2C(=O)O)cn1` [Example 140, 5-({[1-(4-Chloro-2-fluorophenyl)cyclopropyl]carbonyl}amino)-3-fluoro-2-(1-isopropyl-1H-pyrazol-4-yl)benzoic acid], for which the pIC50 is 7.68.

With `CCn1cc(-c2c(F)cc(NC(=O)C3(c4ccc(OC(F)(F)F)cc4F)CC3)cc2C(=O)O)cn1` [Example 139, 2-(1-Ethyl-1H-pyrazol-4-yl)-3-fluoro-5-[({1-[2-fluoro-4-(trifluoromethoxy)phenyl]cyclopropyl}carbonyl)amino]benzoic acid], the pIC50 was 7.89.

Regarding `O=C(O)c1cc(NC(=O)C2(c3ccc(F)c(F)c3)CC2)cc(F)c1-c1cnn(C2CCC2)c1` [Example 38, 2-(1-Cyclobutyl-1H-pyrazol-4-yl)-5-({[1-(3,4-difluorophenyl)cyclopropyl]carbonyl}amino)-3-fluorobenzoic acid], the pIC50 is 7.66.

Regarding `Cn1ncc2ccc(-c3c(F)cc(NC(=O)C4(c5ccc(C(F)(F)F)cc5F)CC4)cc3C(=O)O)cc21` [Example 165, 3-Fluoro-5-[({1-[2-fluoro-4-(trifluoromethyl)phenyl]cyclopropyl}carbonyl)amino]-2-(1-methyl-1H-indazol-6-yl)benzoic acid], the negative-log IC50 (pIC50) is 7.20.

Take `Cc1ccc(-c2c(F)cc(NC(=O)C3(c4ccc(C(F)(F)F)cc4F)CC3)cc2C(=O)O)cn1` [Example 128, 3-Fluoro-5-[({1-[2-fluoro-4-(trifluoromethyl)phenyl]cyclopropyl}carbonyl)amino]-2-(6-methylpyridin-3-yl)benzoic acid]: the pIC50 is 7.43.

In the case of `Cc1ccc(C2(C(=O)Nc3ccc(-c4ccc(C(C)(F)F)nc4)c(C(=O)O)c3)CC2)c(F)c1` [Example 30, 2-[6-(1,1-Difluoroethyl)pyridin-3-yl]-5-({[1-(2-fluoro-4-methylphenyl)cyclopropyl]carbonyl}amino)benzoic acid], the pIC50 was 6.39.

On to `O=C(O)c1cc(NC(=O)C2(c3ccc(OC(F)(F)F)cc3F)CC2)ccc1-c1cnn(C2CCCCC2)c1` [Example 123, 2-(1-Cyclohexyl-1H-pyrazol-4-yl)-5-[({1-[2-fluoro-4-(trifluoromethoxy)phenyl]cyclopropyl}carbonyl)amino]benzoic acid], for which the pIC50 is 7.66.

For the compound `CCCn1cc(-c2ccc(NC(=O)C3(c4ccc(OC(F)(F)F)cc4F)CC3)cc2C(=O)O)cn1` [Example 115, 5-[({1-[2-Fluoro-4-(trifluoromethoxy)phenyl]cyclopropyl}carbonyl)amino]-2-(1-propyl-1H-pyrazol-4-yl)benzoic acid], the pIC50 was 6.92.
